# Assay results reported in patent US11572354B2, “Inhibitor of indoleamine 2,3-dioxygenase-1 and methods of manufacture and use thereof” (UNIVERSITY HEALTH NETWORK, priority 2018, dated 2023).
# Where two headings read alike, the source gives them in different places.
# Legend:
# [1] = target: T1, human IDO1 (Homo sapiens (Human), UniProt P14902); experiment: IDO1 enzymatic inhibition assay; assay type: biochemical
# [2] = target: TDO2 (Homo sapiens, UniProt P48775); experiment: TDO2 enzymatic inhibition assay; assay type: biochemical; details: 500 μM L-Tryptophan, means N≥3; read-out: TDO IC50
# Chain of TDO2 (P48775 whole entry, looked up): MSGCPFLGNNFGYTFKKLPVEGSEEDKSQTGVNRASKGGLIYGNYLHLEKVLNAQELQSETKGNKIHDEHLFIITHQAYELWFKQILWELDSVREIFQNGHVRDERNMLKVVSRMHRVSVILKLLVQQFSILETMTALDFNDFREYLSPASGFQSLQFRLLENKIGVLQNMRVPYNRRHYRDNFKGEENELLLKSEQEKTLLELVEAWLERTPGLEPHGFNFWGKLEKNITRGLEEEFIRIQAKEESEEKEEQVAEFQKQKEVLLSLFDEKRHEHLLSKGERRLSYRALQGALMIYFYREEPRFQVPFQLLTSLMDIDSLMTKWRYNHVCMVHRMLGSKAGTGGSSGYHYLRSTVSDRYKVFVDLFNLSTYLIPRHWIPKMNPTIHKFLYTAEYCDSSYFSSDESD
# [3] = target: T1, human IDO1; experiment: IDO1 inhibition in HEK293/IDO1 transfected cells; assay type: cell-based; details: HEK293/TRIPZ-IDO1 cells
# [4] = Pharmacokinetics studies in mice (plasma and brain concentration); assay type: in vivo; details: for Kp at 0.5 h / Kp at 2 h: brain/plasma
# Description: In order to assess the pharmacokinetics of the IDO1 inhibitors of the present application, two inhibitors were administered to mice at 20 mg/kg via PO (G29), or IP (G28). For a preliminary pharmacokinetic profile, three animals were sacrificed per time point at 30 minutes and two hours post-dose. For a full pharmacokinetic profile, three animals were sacrificed per time point at 15 minute, 30 minutes, 1, 2, 4, 6, 8, and 24 hours post-dose.
# Blood samples were collected via cardiac puncture, the mice were perfused with phosphate buffered saline (PBS) and the brains were collected. The blood and brain samples were protein precipitated with ice-cold acetonitrile and the concentration of the test compound in the resulting supernatant was quantified using LC/MS/MS. For the full pharmacokinetic profile, the parameters were computed using the “PK” package with the R statistical computing software using a non-compartmental analysis.
# [5] = Tissue protein binding (micro-equilibrium dialysis); assay type: in vitro ADME, mice; details: 6 hours at 37° C.
# [6] = recombinant human IDO1, 200 μM L-Tryptophan, means N≥3
# [7] = 24 h after doxycycline induction, means N≥3
# T1 sequence (P14902 whole entry): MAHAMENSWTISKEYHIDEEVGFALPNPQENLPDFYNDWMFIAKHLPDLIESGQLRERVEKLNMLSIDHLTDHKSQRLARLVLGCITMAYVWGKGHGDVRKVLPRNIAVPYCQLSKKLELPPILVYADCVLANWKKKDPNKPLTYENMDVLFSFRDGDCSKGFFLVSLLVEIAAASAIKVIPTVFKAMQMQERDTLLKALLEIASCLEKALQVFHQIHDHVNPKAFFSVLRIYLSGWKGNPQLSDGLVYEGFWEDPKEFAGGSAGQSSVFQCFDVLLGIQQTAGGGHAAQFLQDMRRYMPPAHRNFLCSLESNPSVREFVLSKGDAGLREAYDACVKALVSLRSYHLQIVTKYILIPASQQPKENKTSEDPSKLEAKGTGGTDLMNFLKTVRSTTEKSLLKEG
smiles,measurement,setting,value
"Brc1ccc2[nH]c(-c3cncn3Cc3ccccc3)cc2c1 [Compound 9a, 2-(1-benzyl-1H-imidazol-5-yl)-5-bromo-1H-indole]",increase in potency versus compound 6,"[1]; IDO1 IC50, versus compound 6",two-fold
"Oc1ccccc1-c1cncn1Cc1cc2cc(Br)ccc2[nH]1 [Compound 10c, 2-(1-((5-bromo-1H-indol-2-yl)methyl)-1H-imidazol-5-yl)phenol]",IC50,[2],158 µM
"Fc1ccc2[nH]c(Cn3cncc3-c3ccc[nH]3)cc2c1 [Compound G29, 2-((5-(1H-pyrrol-2-yl)-1H-imidazol-1-yl)methyl)-5-fluoro-1H-indole]",IC50,[1]; [6],0.23 µM
same,EC50,[3]; [7],0.25 µM
same,concentration at 0.5 h,"[4]; mouse, brain, po, 20 mg/kg, 20 mg/kg PO, 0.5 Hr, individual mouse M1, read-out: Brain concentration M1",2.39 µg/mL
same,concentration at 0.5 h,"[4]; mouse, brain, po, 20 mg/kg, 20 mg/kg PO, 0.5 Hr, individual mouse M2, read-out: Brain concentration M2",0.869 µg/mL
same,concentration at 0.5 h,"[4]; mouse, brain, po, 20 mg/kg, 20 mg/kg PO, 0.5 Hr, individual mouse M3, read-out: Brain concentration M3",2.56 µg/mL
same,concentration at 0.5 h,"[4]; mouse, brain, po, 20 mg/kg, 20 mg/kg PO, 0.5 Hr, read-out: Brain concentration Mean",1.94 µg/mL
same,concentration at 2 h,"[4]; mouse, brain, po, 20 mg/kg, 20 mg/kg PO, 2 Hr, individual mouse M4, read-out: Brain concentration M4",3.45 µg/mL
same,concentration at 2 h,"[4]; mouse, brain, po, 20 mg/kg, 20 mg/kg PO, 2 Hr, individual mouse M5, read-out: Brain concentration M5",2.05 µg/mL
same,concentration at 2 h,"[4]; mouse, brain, po, 20 mg/kg, 20 mg/kg PO, 2 Hr, read-out: Brain concentration Mean",2.75 µg/mL
same,Kp at 0.5 h,"[4]; mouse, po, 20 mg/kg, 20 mg/kg PO, 0.5 Hr, individual mouse M1, read-out: B/P Ratio M1",0.9
same,Kp at 0.5 h,"[4]; mouse, po, 20 mg/kg, 20 mg/kg PO, 0.5 Hr, individual mouse M2, read-out: B/P Ratio M2",0.5
same,Kp at 0.5 h,"[4]; mouse, po, 20 mg/kg, 20 mg/kg PO, 0.5 Hr, individual mouse M3, read-out: B/P Ratio M3",0.9
same,Kp at 0.5 h,"[4]; mouse, po, 20 mg/kg, 20 mg/kg PO, 0.5 Hr, read-out: B/P Ratio Mean",0.8
same,Kp at 2 h,"[4]; mouse, po, 20 mg/kg, 20 mg/kg PO, 2 Hr, individual mouse M4, read-out: B/P Ratio M4",5.5
same,Kp at 2 h,"[4]; mouse, po, 20 mg/kg, 20 mg/kg PO, 2 Hr, individual mouse M5, read-out: B/P Ratio M5",5
same,Kp at 2 h,"[4]; mouse, po, 20 mg/kg, 20 mg/kg PO, 2 Hr, read-out: B/P Ratio Mean",5.3
same,concentration at 0.5 h,"[4]; mouse, plasma, po, 20 mg/kg, 20 mg/kg PO, 0.5 Hr, individual mouse M1, read-out: Plasma concentration M1",2.66 µg/mL
same,concentration at 0.5 h,"[4]; mouse, plasma, po, 20 mg/kg, 20 mg/kg PO, 0.5 Hr, individual mouse M2, read-out: Plasma concentration M2",1.61 µg/mL
same,concentration at 0.5 h,"[4]; mouse, plasma, po, 20 mg/kg, 20 mg/kg PO, 0.5 Hr, individual mouse M3, read-out: Plasma concentration M3",2.74 µg/mL
same,concentration at 0.5 h,"[4]; mouse, plasma, po, 20 mg/kg, 20 mg/kg PO, 0.5 Hr, read-out: Plasma concentration Mean",2.33 µg/mL
same,concentration at 2 h,"[4]; mouse, plasma, po, 20 mg/kg, 20 mg/kg PO, 2 Hr, individual mouse M4, read-out: Plasma concentration M4",0.629 µg/mL
same,concentration at 2 h,"[4]; mouse, plasma, po, 20 mg/kg, 20 mg/kg PO, 2 Hr, individual mouse M5, read-out: Plasma concentration M5",0.408 µg/mL
same,concentration at 2 h,"[4]; mouse, plasma, po, 20 mg/kg, 20 mg/kg PO, 2 Hr, read-out: Plasma concentration Mean",0.519 µg/mL
"COc1ccc(Cn2cncc2-c2cc3cc(Br)ccc3[nH]2)cc1 [Compound 9d, 5-bromo-2-(1-(4-methoxybenzyl)-1H-imidazol-5-yl)-1H-indole]",IC50,[1]; [6],21 µM
same,EC50,[3]; [7],4.3 µM
"Brc1ccc2[nH]c(-c3cnc[nH]3)cc2c1 [Compound 6, 5-bromo-2-(1H-imidazol-5-yl)-1H-indole]",IC50,[1]; [6],30 µM
"Brc1ccc2[nH]c(Cn3cncc3-c3ccc[nH]3)cc2c1 [Compound G28, 2-((5-(1H-pyrrol-2-yl)-1H-imidazol-1-yl)methyl)-5-bromo-1H-indole]",IC50,[1]; recombinant human IDO1,0.31 µM
same,IC50,[1]; [6],0.309 µM
same,EC50,[3],0.47 µM
same,EC50,[3]; [7],0.467 µM
same,Tissue Concentration Plasma Mean,"[4]; 20 mg/kg IP, 0.25 hr",1880 ng/mL
same,Tissue Concentration Plasma Mean,"[4]; 20 mg/kg IP, 0.5 hr",1840 ng/mL
same,Tissue Concentration Plasma Mean,"[4]; 20 mg/kg IP, 1 hr",1410 ng/mL
same,Tissue Concentration Plasma Mean,"[4]; 20 mg/kg IP, 2 hr",562 ng/mL
same,Tissue Concentration Plasma Mean,"[4]; 20 mg/kg IP, 4 hr",133 ng/mL
same,Tissue Concentration Plasma Mean,"[4]; 20 mg/kg IP, 6 hr",BQL
same,Tissue Concentration Plasma Mean,"[4]; 20 mg/kg IP, 8 hr",BQL
same,AUC(0-inf),"[4]; mouse, 20 mg/kg IP, Brain",14.2 µg·h/mL
same,AUC(0-t),"[4]; mouse, 20 mg/kg IP, Brain",9.87 µg·h/mL
same,Cmax,"[4]; mouse, 20 mg/kg IP, Brain",4.02 µg/mL
same,Tmax,"[4]; mouse, 20 mg/kg IP, Brain",30 min
same,half-life,"[4]; mouse, 20 mg/kg IP, Brain",142 min
same,AUC(0-inf),"[4]; mouse, 20 mg/kg IP, Plasma",2.92 µg·h/mL
same,AUC(0-t),"[4]; mouse, 20 mg/kg IP, Plasma",2.91 µg·h/mL
same,Cmax,"[4]; mouse, 20 mg/kg IP, Plasma",1.88 µg/mL
same,Tmax,"[4]; mouse, 20 mg/kg IP, Plasma",15 min
same,half-life,"[4]; mouse, 20 mg/kg IP, Plasma",49.8 min
same,concentration at 0.25 h,"[4]; mouse, brain, ip, 20 mg/kg, 20 mg/kg IP, 0.25 hr, read-out: Tissue Concentration Brain Mean",1660 ng/g
same,concentration at 0.5 h,"[4]; mouse, brain, ip, 20 mg/kg, 20 mg/kg IP, 0.5 hr, read-out: Tissue Concentration Brain Mean",4020 ng/g
same,concentration at 1 h,"[4]; mouse, brain, ip, 20 mg/kg, 20 mg/kg IP, 1 hr, read-out: Tissue Concentration Brain Mean",3520 ng/g
same,concentration at 2 h,"[4]; mouse, brain, ip, 20 mg/kg, 20 mg/kg IP, 2 hr, read-out: Tissue Concentration Brain Mean",2760 ng/g
same,concentration at 4 h,"[4]; mouse, brain, ip, 20 mg/kg, 20 mg/kg IP, 4 hr, read-out: Tissue Concentration Brain Mean",1370 ng/g
same,concentration at 6 h,"[4]; mouse, brain, ip, 20 mg/kg, 20 mg/kg IP, 6 hr, read-out: Tissue Concentration Brain Mean",552 ng/g
same,concentration at 8 h,"[4]; mouse, brain, ip, 20 mg/kg, 20 mg/kg IP, 8 hr, read-out: Tissue Concentration Brain Mean",510 ng/g
same,fraction unbound at 6 h,"[5]; pooled brain homogenate in PBS (1:3 m:v), pooled mouse brain homogenized with PBS (1:3), read-out: % FU Brain",0.0161
same,fraction unbound at 6 h,"[5]; pooled mouse plasma, read-out: fu,plasma / % FU Plasma",0.0117
